Test results taken from patent publication US8470787B2, “Hydrates of erythromycin salts, preparation and use thereof” (priority 2008, dated 2013).

Tests used:
[1] = hygroscopic test according to China Pharmacopeia CP2005; assay type: physicochemical; conditions: 25° C., relative humidity 75%
Streptococcus viridan = assay: antibacterial activity, tube double dilution method, clinically obtained bacteria; assay type: cell-based; conditions: 23 strains
Bacillus influenzae = assay: as above; assay type: cell-based; conditions: for MIC50 / MIC90: 17 strains; for MIC: range over 17 strains
Experimental: (§1) The antibacterial activities of the hydrates of erythromycin salts are determined by culturing clinically obtained bacteria and measuring in accordance with pharmacological test methods (the tube double dilution method), and the results are shown in the following tables 9, 10, 11 and 12.

Propionibacterium = assay: as above; assay type: cell-based; conditions: for MIC50 / MIC90: 18 strains; for MIC: range over 18 strains
Experimental: as §1

Bacillus fragilis = assay: as above; assay type: cell-based; conditions: for MIC50 / MIC90: 15 strains; for MIC: range over 15 strains
Experimental: as §1

Pneumococcus = assay: as above; assay type: cell-based; conditions: for MIC50 / MIC90: 18 strains; for MIC: range over 18 strains
Experimental: as §1

Anaerobe = assay: as above; assay type: cell-based
Experimental: as §1

[2] = test system: Streptococcus hemolyticus; assay: as above; assay type: cell-based; conditions: for MIC50 / MIC90: 16 strains; for MIC: range over 16 strains
Experimental: as §1

Neisseria gonorrhoeae = assay: as above; assay type: cell-based; conditions: for MIC50 / MIC90: 16 strains; for MIC: range over 16 strains
Experimental: as §1

[3] = accelerated stability test (sealed vial, 30° C., HPLC content and related substances); assay type: physicochemical
Experimental: The hydrates of erythromycin salts according to the present invention can be stably stored. A sample of the above hydrates was sealed in a vial, and an accelerated stability test was conducted at 30° C. and changes of the content and related substances were measured by a HPLC method (C18 reverse phase column, 0.01M KH2PO4-acetonitrile (60:40) as the mobile phase, detective wavelength: 215 nm, column temperature: 35° C., flow rate: 1.0 ml/min) (upon different hydrates of erythromycin salts, such as crystalline hydrates of erythromycin thiocyanate, the pH of the mobile phase can be adjusted and KH2PO4 can be changed into NaH2PO4, the detective wavelength can be changed into 210 nm, and the column temperature can be set at 35-55° C., such as 50° C. for analysis and measurement). […] As compared to the anhydrous of erythromycin salt, the hydrates of erythromycin salts according to the present invention have a lower hygroscopicity, i.e., has a better stability of hygroscopicity, which facilitates the package and storage thereof, or is a more advantageously stable form for storage relative to the anhydrous.

[4] = test system: Staphylococcus epidermidis; assay: antibacterial activity, tube double dilution method, clinically obtained bacteria; assay type: cell-based; conditions: 21 strains
Staphylococcus aureus = assay: as above; assay type: cell-based; conditions: 26 strains
Escherichia coli = assay: as above; assay type: cell-based; conditions: 21 strains
[5] = spray-dried product

Structure (SMILES)	MIC50 (Streptococcus viridan) [µg/mL]	MIC90 (Streptococcus viridan) [µg/mL]	MIC50 (Bacillus influenzae) [µg/mL]	MIC90 (Bacillus influenzae) [µg/mL]	MIC (Bacillus influenzae) [µg/mL]	MIC50 (Propionibacterium) [µg/mL]	MIC90 (Propionibacterium) [µg/mL]	MIC (Propionibacterium) [µg/mL]	MIC50 (Bacillus fragilis) [µg/mL]	MIC90 (Bacillus fragilis) [µg/mL]	MIC (Bacillus fragilis) [µg/mL]	MIC50 (Pneumococcus) [µg/mL]	MIC90 (Pneumococcus) [µg/mL]	MIC (Pneumococcus) [µg/mL]	MIC50 [2] [µg/mL]	MIC90 [2] [µg/mL]	MIC [2] [µg/mL]	MIC50 (Neisseria gonorrhoeae) [µg/mL]	MIC90 (Neisseria gonorrhoeae) [µg/mL]	MIC (Neisseria gonorrhoeae) [µg/mL]	further results
CC[C@H]1OC(=O)[C@H](C)[C@@H](O[C@H]2C[C@@](C)(OC)[C@@H](O)[C@H](C)O2)[C@H](C)[C@@H](O[C@@H]2O[C@H](C)C[C@H](N(C)C)[C@H]2O)[C@](C)(O)C[C@@H](C)C(=O)[C@H](C)[C@@H](O)[C@]1(C)O.O=C(O)[C@H](O)[C@@H](O)[C@H](O[C@@H]1O[C@H](CO)[C@H](O)[C@H](O)[C@H]1O)[C@H](O)CO [Erythromycin lactobionate anhydrous, reference compound]	–	–	–	–	–	–	–	–	–	–	–	–	–	–	–	–	–	–	–	–	hygroscopicity (in words), compared with the anhydrous [1]: more hygroscopic
CC[C@H]1OC(=O)[C@H](C)[C@@H](O[C@H]2C[C@@](C)(OC)[C@@H](O)[C@H](C)O2)[C@H](C)[C@@H](O[C@@H]2O[C@H](C)C[C@H](N(C)C)[C@H]2O)[C@](C)(O)C[C@@H](C)C(=O)[C@H](C)[C@@H](O)[C@]1(C)O.O.O.O.O.O.O.O=C(O)[C@H](O)[C@@H](O)[C@H](O[C@@H]1O[C@H](CO)[C@H](O)[C@H](O)[C@H]1O)[C@H](O)CO [erythromycin lactobionate hexahydrate]	0.06	0.5	4	8	0.12 to 8	0.06	0.12	0.03 to 16	4	16	0.5 to 64	0.06	1	0.03 to 0.5	0.06	32	0.03 to 32	0.25	1	0.06 to 2	MIC50 (Anaerobe; 16 strains): 2 µg/mL; MIC90 (Anaerobe; 16 strains): 16 µg/mL; MIC (Anaerobe; range over 16 strains): 0.06 to 64 µg/mL; Assay (%) ([3]; month 0): 99.7%; Form ([3]; month 0): off-white powder; Assay (%) ([3]; month 1): 99.6%; Form ([3]; month 1): off-white powder; Assay (%) ([3]; month 2): 100.2%; Form ([3]; month 2): off-white powder; Assay (%) ([3]; month 3): 99.8%; Form ([3]; month 3): off-white powder; Assay (%) ([3]; month 6): 99.6%; Form ([3]; month 6): off-white powder; MIC50 [4]: 16 µg/mL; MIC50 (Staphylococcus aureus): 0.12 µg/mL; MIC50 (Escherichia coli): 4 µg/mL
CC[C@H]1OC(=O)[C@H](C)[C@@H](O[C@H]2C[C@@](C)(OC)[C@@H](O)[C@H](C)O2)[C@H](C)[C@@H](O[C@@H]2O[C@H](C)C[C@H](N(C)C)[C@H]2O)[C@](C)(O)C[C@@H](C)C(=O)[C@H](C)[C@@H](O)[C@]1(C)O.O.O.O.O.O.O=C(O)[C@H](O)[C@@H](O)[C@H](O[C@@H]1O[C@H](CO)[C@H](O)[C@H](O)[C@H]1O)[C@H](O)CO [erythromycin lactobionate pentahydrate]	0.06	0.5	4	8	0.12 to 8	0.06	0.12	0.03 to 16	4	16	0.5 to 64	0.06	1	0.03 to 0.5	0.06	32	0.03 to 32	0.25	1	0.06 to 2	potency [5]: 626 u/mg; Assay (%) ([3]; month 0): 99.9%; Form ([3]; month 0): off-white powder; Assay (%) ([3]; month 1): 100.2%; Form ([3]; month 1): off-white powder; Assay (%) ([3]; month 2): 99.8%; Form ([3]; month 2): off-white powder; Assay (%) ([3]; month 3): 100.1%; Form ([3]; month 3): off-white powder; Assay (%) ([3]; month 6): 99.9%; Form ([3]; month 6): off-white powder; MIC50 [4]: 16 µg/mL; MIC50 (Staphylococcus aureus): 0.12 µg/mL; MIC50 (Escherichia coli): 4 µg/mL
